Measured values from patent US20260069629A1, “RECEPTACLE, DEVICE FOR RELEASING CARBON MONOXIDE, TREATMENT SYSTEM, SET FOR TREATING LIVING CELLS, METHOD OF TREATING A MAMMAL, AND CARBON MONOXIDE” (Julius-Maximilians-Universität Würzburg, in Vertretung des …, priority 2022, published 2026).

Tests used:
[1] = Carbon monoxide release from the receptacle after combining main substance and activation substance; assay type: physicochemical
Experimental: Carbon monoxide (CO) release was 1.30 mL, 0.95 mL, 0.44 mL, and 0.23 mL corresponding to 15 mg, 10 mg, 5 mg, and 2.5 mg of the main substance 42 (“Mo-CORM”), respectively.
Carbon monoxide (CO) release ranged from 0.95 mL to 0.34 mL corresponding to 50 μL to 10 μL of the activation substance 44 (“FeCl”), respectively.

[2] = test system: human semen/spermatozoa; assay: Static oxidation-reduction potential (sORP) of spermatozoa incubated with/without CO, MiOXSYS (Example 1); assay type: cell-based; conditions: two-compartment capsule, 15 mg Mo-CORM, 90 minutes at 25-35° C.; vs samples not contacted with CO (woCO=1); FIG. 10
Experimental: (§1) In this example, the capsule (18-22 mm in length and 6-8 mm diameter) loaded with 15 mg of CO-releasing molecules (Mo-CORM) and 150 μl of an aqueous FeCl3 solution (583.3 mg/ml) was used for the preservation of a 0.7 mL to about 2.9 mL sample in a standard 15 mL Falcon tube.
(§2) Between 1.46 mL and 5.7 mL human semen/spermatozoa were collected from healthy males of between 25 and 50 years of age in 100 mL sample vials on site. Samples were then divided into two equal fractions each for subsequent incubation with CO (wCO) and without CO (woCO). In order to estimate the spermatozoa concentration in the samples and to establish an initial baseline for each sample, a routine spermiogram was performed before samples were transferred to gas-tight 15 mL Falcon tubes. Samples were incubated at 25-35° C. for 90 minutes with and without an activated capsule system in a closed container. During this incubation period liquefaction took place naturally. The samples were then analyzed for total motility, progressive motility, static oxidation-reduction potential, and for DNA fragmentation.
A Male Infertility Oxidative System (MiOXSYS, Englewood, CO) was used to determine static oxidation-reduction potential (sORP) levels. 30 μL of the sperm samples were transferred to the sample application port on a MiOXSYS sensor and analyzed for 2 minutes. […]

[3] = test system: Human sperm; assay: Static oxidation-reduction potential (sORP) of sperm treated with single-chamber receptacles, MiOXSYS (Example 2); assay type: cell-based; conditions: vs untreated, results expressed in mV/10^6 sperm/mL, FIG. 12
Experimental: Example 2 illustrates the improvement of spermatozoan viability parameters (namely, oxidation-reduction potential) in response to different carbon monoxide (CO) incubation durations. Sperm form the same subject was either treated with carbon monoxide or left untreated, as “untreated” control. Treatments with CO varied in duration (60, 90, 180, or 270 min).
In this example, sperm samples were treated with either one, three, or six receptacles/capsules, each loaded with 5 mg Mo-CORM (corresponds to 0.44 mL CO) for 60 to 270 mins, or left untreated for the same amount of time.
Human sperm was collected from healthy volunteers in 100 mL specimen containers. Afterwards, the ejaculate was split into equal parts and filled into 15 mL gas tight falcon tubes, with one of the samples being exposed to one or more activated receptacles/capsules. Then, both samples were analyzed for static oxidation-reduction potential (sORP) via MiOXSYS after a predetermined time.
An oxidative male infertility measuring System (MiOXSYS, Englewood, CO) was used to determine static oxidation-reduction potential (sORP) levels following manufacturer's specifications. 30 μL of sample were transferred to the sample application port onto a MiOXSYS sensor and analyzed for 2 minutes. The results were expressed in milli Volt (mV) and normalized to the seminal sperm concentration (mV/10^6 sperm/mL).

[4] = test system: human semen/spermatozoa; assay: Progressive motility of spermatozoa incubated with/without CO, CASA (Example 1); assay type: cell-based; conditions: two-compartment capsule, 15 mg Mo-CORM, 90 minutes; vs spermatozoa not contacted with CO
Experimental: as §1
as §2, with “Samples were incubated at 25-35° C. for 90 minutes with and without an activated capsule system in a closed container. During this incubation period liquefaction took place naturally.” left out
Total motility, progressive motility and concentration of the samples were assessed using a CEROS II (Hamilton Thorne, Beverly, MA) computer assisted sperm analysis (CASA) system. 6 μL of a sperm sample diluted 1:1 with Multipurpose Handling Medium-Complete (MHM-C, FujiFilm/IrvineScientific, Santa Ana, CA) was measured and the concentration and level of mobility (total and progressive motility) was assessed.

[5] = test system: human semen/spermatozoa; assay: DNA fragmentation of spermatozoa incubated with/without CO, Halo Sperm G2 Kit (Example 1); assay type: cell-based; conditions: two-compartment capsule, 15 mg Mo-CORM, 90 minutes at 25-35° C.; vs samples not contacted with CO (woCO=1); FIG. 11
Experimental: as §1
as §2, with “During this incubation period liquefaction took place naturally.” left out
To determine DNA fragmentation a count-based microscopy assay was performed. For this spermatozoa samples were diluted using MHM-C (Multipurpose Handling Medium-Complete, FujiFilm, IrvineScientific) to a maximum of 20×E6 spermatozoa per mL and analyzed using a Halo Sperm G2 Kit (Halotech, Madrid, Spain). […] At least 300 spermatozoa were then analyzed using a bright field microscope. […]

Molecule	released amount/volume of carbon monoxide (CO) from the receptacle ([1]; 2.5 mg of the main substance (Mo-CORM), FIG. 9A)	released amount/volume of carbon monoxide (CO) from the receptacle ([1]; 5 mg of the main substance (Mo-CORM), FIG. 9A)	released amount/volume of carbon monoxide (CO) from the receptacle ([1]; 10 mg of the main substance (Mo-CORM), FIG. 9A)	released amount/volume of carbon monoxide (CO) from the receptacle ([1]; 15 mg of the main substance (Mo-CORM), FIG. 9A)	released amount/volume of carbon monoxide (CO) from the receptacle ([1]; 10 μL of the activation substance (FeCl), FIG. 9B)	released amount/volume of carbon monoxide (CO) from the receptacle ([1]; 50 μL of the activation substance (FeCl), FIG. 9B)	Relative oxidation-reduction-potential (sORP wCO / sORP woCO) [2]	oxidation-reduction potential (sORP) of treated gametes ([3]; subject 38_7, contacted with carbon monoxide for 60 min)	oxidation-reduction potential (sORP) of treated gametes ([3]; subject 42_1, contacted with carbon monoxide for 90 min)	progressive motility of spermatozoa [4]	Relative DNA fragmentation (wCO / woCO) [5]
trisodiumtricarbonyl-[tris(isocyanoethylacetate)]molybdenum [Mo-CORM]	0.23 mL	0.44 mL	0.95 mL	1.30 mL	0.34 mL	0.95 mL	–	–	–	–	–
[C-]#[O+] [CO, carbon monoxide]	–	–	–	–	–	–	trend to be lower	drastic reduction	drastic reduction	improvement	reduced
